Measurements reported in US20030073731A1, “Compositions and methods of the use thereof achiral analogues of CC-1065 and the duocarmycins” (priority 2000, published 2003).
Where two headings read alike, the source gives them in different places.

Key:
OVCAR-8 [1] = test system: OVCAR-8
CAKI-1 [2] = test system: CAKI-1
CCRF-CEM [3] = test system: CCRF-CEM
SK-MEL-28 [4] = test system: SK-MEL-28
BT-549 [5] = test system: BT-549
P815 mastocytoma cells = assay: cells; format: cell-based, murine; details: Mus musculus; P815, 72 hr incubation
Method: (§1) The P815 and L1210 cell lines were obtained from American Type Tissue Culture Collection (ATCC). The cell lines were grown in Delbecco's Modified Eagle Medium (DMEM, Atlanta Biologicals) supplemented with 10% fetal bovine serum, Hepes Buffer (2 mM, Mediatech Cellgro, 25-060-Cl), L-Glutamine (2 mM, Mediatech Cellgro), and penicillin/streptomycin (50,000 units penicillin, […] streptomycin, Atlanta Biologicals). Cells were maintained at 37° C. in a 5% humidified CO2 atmosphere. […] This cell suspension (100 μL) was added to 96 well flat-bottom cell culture plates. At this concentration, 80,000 cells were seeded in each well. Drug solutions (dissolved in DMSO and diluted in DMEM) were added to each well (5 μL/well) resulting in final concentrations ranging from […] to 1×10^−12 M. Quadruplicate wells were prepared for each drug concentration. The plates were incubated for 72 hr at 37° C. in a 5% CO2 atmosphere. MTT (3-(4,5-dimethylthiazol-2-yl)-2,5-diphenyl tetrazolium bromide) was dissolved in PBS (5 mg/ml). After the indicated cell incubation period, 10 μL of this stock MTT solution was added to each well and the plates were further incubated for 4 h at 37° C. in a 5% CO2 atmosphere. […] The contents of the well were mixed thoroughly by pipetting the cell suspension up and down and the plates were allowed to sit at room temperature for 15 min in order to allow for full development of the purple color. The plates were read on a Dynatech Plate Reader, utilizing Dynex Revelation 3.2 software, with a test wavelenth of 570 nm and a reference wavelength of […].

L1210 leukemia cells = assay: cells; format: cell-based, murine; details: Mus musculus; L1210, 72 hr incubation
Method: as §1

RXF 393 = assay: NCI in-vitro cytotoxicity screen, Renal Cancer panel; format: cell-based; details: Homo sapiens
Method: The compounds of this invention were also tested against the panel of 60 human cancer cell lines at the National Cancer Institute, Bethesda, Md. […] The cytotoxicity studies were conducted using a 48 hour exposure, and measuring the optical density of sulforhodamine B-derived color.

CAKI-1 [6] = assay: cells; details: Homo sapiens
SW-620 = assay: cells; details: Homo sapiens
CCRF-CEM [7] = assay: cells; details: Homo sapiens
SK-MEL-28 [8] = assay: cells; details: Homo sapiens
OVCAR-8 [9] = assay: cells; details: Homo sapiens
BT-549 [10] = assay: cells; details: Homo sapiens
MOLT-4 = assay: cells; details: Homo sapiens
K-562 = assay: cells; details: Homo sapiens
SN12C = assay: cells; details: Homo sapiens
PC-3 = assay: cells; details: Homo sapiens
HCT-116 = assay: cells; details: Homo sapiens
HT29 = assay: cells; details: Homo sapiens
ACHN = assay: cells; details: Homo sapiens
786-0 = assay: cells; details: Homo sapiens
NCI-H522 = assay: cells; details: Homo sapiens

4-(2-Chloroethyl)-3-[5-(5-benzofuran-2-carboxamido)indole-2-carboxamido]phenol [Compound 1]
GI50 (MCF7): 1030 nM | TGI (MCF7): 2.27E-06 Molar | GI50 (TK-10): 2450 nM | TGI (TK-10): 5.85E-06 Molar | GI50 (OVCAR-8 [1]): 1320 nM | TGI (OVCAR-8 [1]): 3.28E-06 Molar | GI50 (SNB-19): 3530 nM | TGI (SNB-19): 1.38E-05 Molar | GI50 (A549/ATCC): 1980 nM | TGI (A549/ATCC): 6.58E-06 Molar | GI50 (LOX IMVI): 2430 nM | TGI (LOX IMVI): 6.93E-06 Molar | GI50 (CAKI-1 [2]): 2300 nM | TGI (CAKI-1 [2]): 7.19E-06 Molar | GI50 (HS 578T): 11800 nM | TGI (HS 578T): 3.96E-06 Molar | GI50 (CCRF-CEM [3]): 1260 nM | TGI (CCRF-CEM [3]): 5.28E-06 Molar | GI50 (SNB-75): 18600 nM | TGI (SNB-75): 3.32E-05 Molar | GI50 (SK-MEL-28 [4]): 2400 nM | TGI (SK-MEL-28 [4]): 6.10E-06 Molar | GI50 (NCI-H23): 1670 nM | TGI (NCI-H23): 3.38E-06 Molar | GI50 (BT-549 [5]): 3600 nM | TGI (BT-549 [5]): 2.05E-05 Molar

COC(=O)c1[nH]c2c(O)cc(NC(=O)c3cc4cc(OC)c(OC)c(OC)c4[nH]3)c(CCCl)c2c1C(=O)OC [Compound 22, Dimethyl 4-(2-chloroethyl)-7-hydroxy-5-(5,6,7-trimethoxyindole-2-carboxamido)indole-2,3-dicarboxylate]
IC50 (P815 mastocytoma cells): 5400 nM | IC50 (L1210 leukemia cells): 4200 nM | GI50 (RXF 393; RXF 393): 74.7 nM | CC50 (RXF 393; RXF 393, read-out: LC50): 21500 nM | GI50 (CAKI-1 [6]; CAKI-1): 147 nM | CC50 (CAKI-1 [6]; CAKI-1, read-out: LC50): > 50000 nM | GI50 (SW-620; SW-620): 109 nM | CC50 (SW-620; SW-620, read-out: LC50): > 50000 nM | GI50 (CCRF-CEM [7]): 31.8 nM | CC50 (CCRF-CEM [7]; read-out: LC50): > 50000 nM | GI50 (SK-MEL-28 [8]; SK-MEL-28): 172 nM | CC50 (SK-MEL-28 [8]; SK-MEL-28, read-out: LC50): > 50000 nM | GI50 (OVCAR-8 [9]; OVCAR-8): 70.9 nM | CC50 (OVCAR-8 [9]; OVCAR-8, read-out: LC50): 1760 nM | GI50 (BT-549 [10]; BT-549): 329 nM | CC50 (BT-549 [10]; BT-549, read-out: LC50): > 50000 nM | GI50 (MOLT-4; MOLT-4): 10.5 nM | CC50 (MOLT-4; MOLT-4, read-out: LC50): > 50000 nM | GI50 (K-562; K562): 315 nM | CC50 (K-562; K562, read-out: LC50): > 50000 nM | GI50 (SN12C): 179 nM | CC50 (SN12C; read-out: LC50): > 50000 nM | GI50 (PC-3; PC-3): 61.7 nM | CC50 (PC-3; PC-3, read-out: LC50): 10500 nM | GI50 (HCT-116; HCT-116): 65.6 nM | CC50 (HCT-116; HCT-116, read-out: LC50): 33200 nM | GI50 (HT29; HT-29): 68.1 nM | CC50 (HT29; HT-29, read-out: LC50): 2340 nM | GI50 (ACHN): 44.6 nM | CC50 (ACHN; read-out: LC50): > 50000 nM | GI50 (786-0; 786-0): 123 nM | CC50 (786-0; 786-0, read-out: LC50): > 50000 nM | GI50 (NCI-H522; NCI-H522): 57.7 nM | CC50 (NCI-H522; NCI-H522, read-out: LC50): 373 nM
